Reference: patent EP0595183B1, “Hydantoin derivatives, salts thereof and maillard reaction inhibitors comprising the same” (SANWA KAGAKU KENKYUSHO CO., LTD., priority 1992, dated 1994)

Columns and labels:
rats = experiment: 4 week subacute toxicity by oral administration; assay type: in vivo; conditions: rat (male)
Text: (§1) Acute and 4 week subacute toxicities of exemplar compounds according to the invention were checked by oral administration thereof and using rats.

BSA = experiment: Inhibition of cross-linking of proteins (SDS-PAGE), BSA with fructose; assay type: biochemical; conditions: Protein BSA 10mg/ml, compound 5mM, fructose 400mM, pH 7.4, 37°C for 7 days
Protocol: (§2) A testing or control compound (5mM), fructose (400mM) and a protein of either BSA (10mg/ml) or lysozyme (10mg/ml) were dissolved in 0.5M Na-phosphate buffer (pH 7.4). The mixture was incubated at 37°C for 7 days At the end of the reaction period, sodium dodecyl sulfonate-polyacrylamide gel electrophoresis (SDS-PAGE) was carried out with using aliquots of the reaction mixture. Protein band was stained with Coomassie brilliant blue and protein content of each band was determined with a SHIMAZU UV-265 scanmeter.
(§3) The inhibition ratio of cross-linking of proteins was estimated with the following equation. Inhibition ratio (%) = [(A - B)/A] x 100 [formula] wherein, A : degree of cross-link formation (containing no compound), and B : degree of cross-link formation (containing the compound).

[1] = test system: bovine serum albumin (BSA); experiment: Inhibition of fluorescence development (Maillard reaction products) in BSA/fructose incubation; assay type: biochemical; conditions: compound 5mM, BSA 10mg/ml, fructose 400mM, pH 7.4, 20% DMSO, 37°C for 24 hours; fluorescence ex 350nm / em 428nm
Protocol: A testing or control compound (5mM), bovine serum albumin (BSA, 10mg/ml) and fructose (400mM) were dissolved in […] Na-phosphate buffer (pH 7.4) containing 20% DMSO. The mixture was incubated at 37°C for 24 hours.
The incubated mixture was diluted to 10 folds in volume with distilled water and measured fluorescense intensity at excitation wavelength of 350nm and emission wavelength of 428nm with a HITACHI F-4010 spectrofluorometer. The inhibition ratio of fluorescense development was estimated with the following equation. Inhibition (%) = {[F1-F3-F4)- (F2-F3-F4)]/(F1-F3-F4)} x 100 [formula] wherein, Inhibition : Inhibition ratio, F1 : Fluorescense intensity of the solution containing no compound, F2 : Fluorescense intensity of the solution containing the compound, F3 : Fluorescense intensity of the solution containing only BSA, and F4 : Fluorescense intensity of the solution containing only fructose.

[2] = Acute toxicity by oral administration; conditions: in vivo
Text: as §1

lysozyme = experiment: Inhibition of cross-linking of proteins (SDS-PAGE), lysozyme with fructose; assay type: biochemical; conditions: Protein Lysozyme 10mg/ml, compound 5mM, fructose 400mM, pH 7.4, 37°C for 7 days
Protocol: as §2, §3

Structure (SMILES)	Non-toxic dose (rats) [mg/kg]	Inhibition ratio (%) (BSA)	Inhibition ratio (%) [1] [%]	LD50 ([2]; rat (female)) [mg/kg]	LD50 ([2]; rat (male)) [mg/kg]	Inhibition ratio (%) (lysozyme)
N=C(N)NN [Aminoguanidine, reference compound]	30	70.7	86.9	1300	1900	59.3
NNC(=O)[C@H]1C[C@@]2(NC(=O)NC2=O)c2cc(F)ccc2O1 [Example 1, (2R,4R)-6-Fluoro-2',5'-dioxospiro[chroman-4,4'-imidazolidine]-2-carbohydrazide]	–	–	87.3	> 4000	> 4000	–
NNC(=O)[C@H]1C[C@]2(NC(=O)NC2=O)c2cc(F)ccc2O1 [Example 2, (2R,4S)-6-Fluoro-2',5'-dioxospiro[chroman-4,4'-imidazolidine]-2-carbohydrazide]	–	–	88.6	–	–	–
NNC(=O)[C@@H]1C[C@@]2(NC(=O)NC2=O)c2cc(F)ccc2O1 [Example 3, (2S,4R)-6-Fluoro-2',5'-dioxospiro[chroman-4,4'-imidazolidine]-2-carbohydrazide]	–	–	88.1	–	–	–
O=C1NC(=O)[C@@]2(C[C@@H](C(=O)NNC(=O)C(F)(F)F)Oc3ccc(F)cc32)N1 [Example 7, (2S, 4S)-6-Fluoro-2',5'-dioxo-N'-trifluoroacetylspiro[chroman-4,4'-imidazolidine]-2-carbohydrazide]	–	–	21.3	–	–	–
NNC(=O)[C@@H]1C[C@]2(NC(=O)N(N)C2=O)c2cc(F)ccc2O1 [Example 9, (2S,4S)-1'-Amino-6-fluoro-2',5'-dioxospiro[chroman-4,4'-imidazolidine]-2-carbohydrazide]	–	–	86.6	–	–	–
NC(=O)[C@@H]1C[C@]2(NC(=O)N(N)C2=O)c2cc(F)ccc2O1 [Example 10, (2S,4S)-1'-Ainino-6-fluoro-2',5'-dioxospiro[chroman-4,4'-imidazolidine]-2-carboxamide]	–	–	19.7	–	–	–
NNC(=O)[C@@H]1C[C@]2(NC(=O)NC2=O)c2cc(F)ccc2O1 [Reference Example 2, (2S,4S)-6 -Fluoro-2',5'-dioxospiro[chroman-4,4'-imidazolidine]-2-carbohydrazide]	> 2000	88.7	88.7	> 4000	> 4000	67.4
CNNC(=O)[C@@H]1C[C@]2(NC(=O)NC2=O)c2cc(F)ccc2O1 [Reference Example 3, (2S,4S)-6-Fluoro-N'-methyl-2',5'-dioxospiro[chroman-4,4'-imidazolidine]-2-carbohydrazide]	–	–	41.6	–	–	–
O=C1NC(=O)[C@@]2(C[C@@H](C(=O)NNc3ccccc3)Oc3ccc(F)cc32)N1 [Reference Example 4, (2S,4S)-6-Fluoro-2',5'-dioxo-N'-phenylspiro[chroman-4,4'-imidazolidine]-2-carbohydrazide]	–	–	17.8	–	–	–
